PMC9382192, “Combined treatment with epigenetic agents enhances anti-tumor activity of MAGE-D4 peptide-specific T cells by upregulating the MAGE-D4 expression in glioma” (Frontiers in Oncology, 2022)

What was measured:
U87 = experiment: Granzyme A and perforin ELISA, T cells with U87; type: cell-based, human; settings: T cells stimulated by TSA-treated U87, E:T 50:1, 4 h
Method: The human glioma cell lines (U87-MG and U251) were obtained from the Cell Bank of Type Culture Collection of the Chinese Academy of Science (Shanghai, China). […] A3656), valproic acid (VPA, CAS No. 99-66-1), and trichostatin A (TSA, CAS No. 58880-19-6) were purchased from Sigma-Aldrich Corporation (St. Louis, MO, USA). DAC and TSA were dissolved in DMSO to a concentration of 10 mM. Aliquots were stored at −80°C and diluted with media before being used. […] Four hours later, suspended cells were collected for CD107a flow cytometry, meanwhile, the supernatant was collected and analyzed with granzyme A and perforin ELISA kit (Cloud-Clone Corporation, Wuhan, China) at 450 nm, and the LDH kit (Promega, USA) at 490 nm. The percentage of specific lysis was calculated using the following formula: [(experimental release − spontaneous release)/(maximum release − spontaneous release)] × 100. […] Then, the cytotoxicity assay was measured and calculated as mentioned above.

U87 cell-derived tumors = experiment: In vivo xenograft tumor model; parameters: species or system BALB/C nude female mice
Method: Eighteen BALB/C nude female mice aged 4 weeks were provided by the Guangxi Experimental Animal Center. The mice were placed in a light-controlled room at 24 ± 1 °C (light: 7:00–19:00 h, dark: 19:00–7:00 h) and fed under specific pathogen-free conditions. All protocols followed the guidelines of the National Research Council for the Care and Use of Laboratory Animals and were approved by the Animal Ethics Committee of Guangxi Medical University. To develop a xenograft model, 4 × 10^6 U87 cells were inoculated into the flanks of the mice subcutaneously. Two weeks later, mice simultaneously received intraperitoneal peritumorally injections of TSA (0.5 mg/kg) and 1 × 10^7 peptides loaded on CD8^+ T cells, respectively. Every […], tumor volumes were measured simultaneously with a caliper. Mice were sacrificed by euthanasia when visibly ill. Mice injected with negative peptide-induced CTLs and CTLs without peptides were included as controls. The tumor volumes were calculated using the following formula: tumor volume = [(width2 × length)/2].

IL-2 = IL-2 ELISA of DC/T-cell co-culture supernatant; type: cell-based, human; settings: 72 h co-culture supernatant, versus negative control peptide
Method: Production of cytokines in the supernatants was determined using commercially available ELISA kits (Cloud-Clone Corporation, Wuhan, China) according to the protocol of the manufacturer. Approximately 50 μl of supernatant and different concentration standards were added and mixed with 100 μl of horseradish peroxidase (HRP) labeled detection antibody against a 96-well plate, respectively, except for the blank control. After incubation at 37°C for 60 min, we washed the plate five times. Add substrate A and substrate B 50 μl respectively, incubate for 15min in a 37°C incubator in dark. Then, 50 μl of stop solution was added and a 450 nm absorbance value (OD value) was measured within 15 min. The regression equation of the standard curve is calculated according to the concentration of the standard substance and the OD value, and the corresponding sample concentration is calculated on the basis of the regression equation.

HLA-A2 = HLA-A2 expression in U87; type: cell-based, human; settings: TSA 1 μM 24 h
Method: The human glioma cell lines (U87-MG and U251) were obtained from the Cell Bank of Type Culture Collection of the Chinese Academy of Science (Shanghai, China). […] A3656), valproic acid (VPA, CAS No. 99-66-1), and trichostatin A (TSA, CAS No. 58880-19-6) were purchased from Sigma-Aldrich Corporation (St. Louis, MO, USA). DAC and TSA were dissolved in DMSO to a concentration of 10 mM. Aliquots were stored at -80°C and diluted with media before being used. Drug treatments were divided into seven groups: (1) DAC group: cells were cultured in medium on the presence of 1 μM DAC for 120 h; (2) VPA group: cells were grown in medium containing 1 mM VPA for 120 h; (3) TSA group: cells were cultured in medium supplemented with 1 μM TSA for 24 h; (4) D + V group: cells were cultured with 1 μM DAC and 1 mM VPA for 120 h; (5) D + T group: cells were cultured with 1 μM DAC for 120 h, followed by 1 μM TSA for 24 h; (6) Control group: cells were cultured with 0.09% DMSO, which is the highest concentration of DMSO used in this study in consideration of the potential toxicity of DMSO to living cells. […] The cells were then harvested, washed with PBS buffer three times, and analyzed by a FACScan flow cytometer (BD Biosciences, Franklin Lakes, NJ, USA) using BD AccuriTM C6 Software (BD Biosciences).

Row | Compound | granzyme A and perforin secreted by T cells (U87) | tumor volume (U87 cell-derived tumors; U87 xenograft, 1 × 10^7 peptide-specific CD8+ T cells, compared with DC + Tc and NC-DC + Tc groups) | IL-2 secreted by DC-stimulated T cells (IL-2) | tumor volume (U87 cell-derived tumors; U87 pre-treated with TSA versus U87, both inoculated with P8-specific T cells, TSA 0.5 mg/kg) | tumor growth (U87 cell-derived tumors; group treated with TSA versus group treated without TSA) | HLA-A2 levels (HLA-A2)
1 | CLPPPNVIL [Peptide P8] | the most granzyme A and perforin | significantly reduced | higher IL-2 | – | – | –
2 | CC(/C=C/C(=O)NO)=C\[C@@H](C)C(=O)c1ccc(N(C)C)cc1 [TSA, trichostatin A] | more granzyme A and perforin | – | – | smaller | slower | elevated HLA-A2 levels with statistical significance
